Data: ChEMBL document CHEMBL5291721, “A preclinical secondary pharmacology resource illuminates target-adverse drug reaction associations of marketed drugs” (Nat Commun, 2023)

Tests used:
[1] = molecular target: Sodium-dependent noradrenaline transporter (Homo sapiens, UniProt P23975)
[2] = molecular target: Glutamate receptor ionotropic, NMDA 1 (Rattus norvegicus, UniProt P35439)
Thromboxane A2 receptor = molecular target: T1, Thromboxane A2 receptor (Homo sapiens, UniProt P21731)
T1 sequence (P21731 whole entry): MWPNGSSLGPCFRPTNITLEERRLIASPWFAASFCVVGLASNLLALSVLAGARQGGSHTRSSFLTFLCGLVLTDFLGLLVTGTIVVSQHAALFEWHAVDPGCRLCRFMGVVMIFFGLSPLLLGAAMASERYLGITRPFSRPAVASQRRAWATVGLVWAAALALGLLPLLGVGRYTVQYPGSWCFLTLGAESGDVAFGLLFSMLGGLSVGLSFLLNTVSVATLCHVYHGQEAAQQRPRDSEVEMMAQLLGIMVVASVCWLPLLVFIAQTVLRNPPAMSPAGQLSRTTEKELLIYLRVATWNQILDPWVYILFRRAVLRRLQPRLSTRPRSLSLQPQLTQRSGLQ

Progesterone receptor = molecular target: T2, Progesterone receptor (Homo sapiens, UniProt P06401); type: functional
T2 sequence (P06401 whole entry): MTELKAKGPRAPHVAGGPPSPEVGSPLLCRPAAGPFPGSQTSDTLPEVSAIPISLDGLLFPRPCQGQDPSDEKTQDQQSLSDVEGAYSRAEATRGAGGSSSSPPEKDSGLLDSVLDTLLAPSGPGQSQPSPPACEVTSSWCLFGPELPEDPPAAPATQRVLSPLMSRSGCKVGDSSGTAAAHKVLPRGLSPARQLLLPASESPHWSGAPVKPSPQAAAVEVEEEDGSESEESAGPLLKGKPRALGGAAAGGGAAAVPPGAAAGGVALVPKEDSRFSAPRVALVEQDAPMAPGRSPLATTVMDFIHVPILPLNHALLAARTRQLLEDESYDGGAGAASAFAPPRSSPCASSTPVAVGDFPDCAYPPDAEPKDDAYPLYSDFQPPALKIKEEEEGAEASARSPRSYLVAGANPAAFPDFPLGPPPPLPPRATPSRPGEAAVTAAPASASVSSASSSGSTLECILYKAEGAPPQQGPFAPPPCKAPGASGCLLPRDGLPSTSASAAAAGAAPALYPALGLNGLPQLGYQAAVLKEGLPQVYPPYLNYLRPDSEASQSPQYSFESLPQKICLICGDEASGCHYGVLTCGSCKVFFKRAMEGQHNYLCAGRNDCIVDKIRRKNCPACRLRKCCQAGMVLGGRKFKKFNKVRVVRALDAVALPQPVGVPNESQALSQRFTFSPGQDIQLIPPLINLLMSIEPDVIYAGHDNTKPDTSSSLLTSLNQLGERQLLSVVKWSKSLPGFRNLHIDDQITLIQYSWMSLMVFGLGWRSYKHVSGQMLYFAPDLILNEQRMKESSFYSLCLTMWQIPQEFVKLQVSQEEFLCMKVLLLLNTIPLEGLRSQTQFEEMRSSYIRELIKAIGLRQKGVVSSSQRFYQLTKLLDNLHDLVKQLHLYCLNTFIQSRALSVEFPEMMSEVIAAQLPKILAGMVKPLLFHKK

D(1A) dopamine receptor = D(1A) dopamine receptor (Homo sapiens, UniProt P21728); type: functional, cell-based
[3] = molecular target: Gamma-aminobutyric acid receptor subunit alpha-1 (Rattus norvegicus, UniProt P62813); type: functional
[4] = molecular target: T3, Alpha-2A adrenergic receptor (Homo sapiens, UniProt P08913); type: functional, cell-based
T3 sequence (P08913 whole entry): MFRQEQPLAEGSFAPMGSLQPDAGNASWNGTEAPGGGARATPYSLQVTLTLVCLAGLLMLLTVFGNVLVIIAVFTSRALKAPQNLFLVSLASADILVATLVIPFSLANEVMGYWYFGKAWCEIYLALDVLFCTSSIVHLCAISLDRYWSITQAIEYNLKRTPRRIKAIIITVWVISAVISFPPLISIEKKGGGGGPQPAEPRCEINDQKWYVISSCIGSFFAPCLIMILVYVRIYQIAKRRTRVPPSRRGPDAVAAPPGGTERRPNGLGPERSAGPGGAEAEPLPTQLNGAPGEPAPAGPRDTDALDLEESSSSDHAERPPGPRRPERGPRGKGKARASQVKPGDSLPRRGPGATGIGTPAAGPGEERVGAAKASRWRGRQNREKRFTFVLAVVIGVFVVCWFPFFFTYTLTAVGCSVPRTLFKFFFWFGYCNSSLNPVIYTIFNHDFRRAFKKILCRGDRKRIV

[5] = molecular target: Beta-1 adrenergic receptor (Homo sapiens, UniProt P08588); type: functional
[6] = molecular target: T4, 5-hydroxytryptamine receptor 2C (Homo sapiens, UniProt P28335)
T4 sequence (P28335 whole entry): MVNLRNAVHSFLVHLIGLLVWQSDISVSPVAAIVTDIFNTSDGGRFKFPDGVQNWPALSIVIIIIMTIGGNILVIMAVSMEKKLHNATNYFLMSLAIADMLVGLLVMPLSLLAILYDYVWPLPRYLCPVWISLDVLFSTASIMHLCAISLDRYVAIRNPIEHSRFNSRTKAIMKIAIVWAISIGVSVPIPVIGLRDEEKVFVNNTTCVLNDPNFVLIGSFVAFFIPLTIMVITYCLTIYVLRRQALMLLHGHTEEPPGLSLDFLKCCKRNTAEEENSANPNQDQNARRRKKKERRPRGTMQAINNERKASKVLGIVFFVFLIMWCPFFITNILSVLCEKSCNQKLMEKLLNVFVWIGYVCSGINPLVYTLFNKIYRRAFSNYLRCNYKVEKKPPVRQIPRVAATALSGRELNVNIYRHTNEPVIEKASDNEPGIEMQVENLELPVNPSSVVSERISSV

[7] = molecular target: T5, Alpha-1A adrenergic receptor (Homo sapiens, UniProt P35348); type: functional, cell-based
T5 sequence (P35348 whole entry): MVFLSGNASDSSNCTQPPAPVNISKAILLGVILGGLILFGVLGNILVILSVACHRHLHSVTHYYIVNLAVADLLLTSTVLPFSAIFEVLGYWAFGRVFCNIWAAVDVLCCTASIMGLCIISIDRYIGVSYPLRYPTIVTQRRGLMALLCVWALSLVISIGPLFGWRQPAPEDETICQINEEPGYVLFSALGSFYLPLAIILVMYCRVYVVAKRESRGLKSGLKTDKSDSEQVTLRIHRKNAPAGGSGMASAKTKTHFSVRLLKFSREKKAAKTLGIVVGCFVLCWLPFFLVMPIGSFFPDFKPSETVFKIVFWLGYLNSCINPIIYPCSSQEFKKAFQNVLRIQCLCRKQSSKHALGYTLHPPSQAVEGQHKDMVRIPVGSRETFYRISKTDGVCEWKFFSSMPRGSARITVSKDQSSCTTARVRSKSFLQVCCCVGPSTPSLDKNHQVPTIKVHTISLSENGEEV
Also: assay procedure not described here.

Sequence of D(1A) dopamine receptor (P21728 whole entry): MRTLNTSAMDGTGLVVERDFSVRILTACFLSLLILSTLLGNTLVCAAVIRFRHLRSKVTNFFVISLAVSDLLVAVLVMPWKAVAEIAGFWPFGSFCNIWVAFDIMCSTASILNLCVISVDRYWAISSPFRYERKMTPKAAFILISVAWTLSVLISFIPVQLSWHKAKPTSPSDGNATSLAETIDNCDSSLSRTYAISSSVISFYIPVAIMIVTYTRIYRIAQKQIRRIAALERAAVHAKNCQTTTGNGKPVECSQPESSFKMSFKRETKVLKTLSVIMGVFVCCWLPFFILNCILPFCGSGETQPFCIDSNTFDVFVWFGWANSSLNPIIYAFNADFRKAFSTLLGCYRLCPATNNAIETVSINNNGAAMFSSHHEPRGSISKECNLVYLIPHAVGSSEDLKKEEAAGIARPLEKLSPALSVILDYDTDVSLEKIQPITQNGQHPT
Sequence of Sodium-dependent noradrenaline transporter (P23975 whole entry): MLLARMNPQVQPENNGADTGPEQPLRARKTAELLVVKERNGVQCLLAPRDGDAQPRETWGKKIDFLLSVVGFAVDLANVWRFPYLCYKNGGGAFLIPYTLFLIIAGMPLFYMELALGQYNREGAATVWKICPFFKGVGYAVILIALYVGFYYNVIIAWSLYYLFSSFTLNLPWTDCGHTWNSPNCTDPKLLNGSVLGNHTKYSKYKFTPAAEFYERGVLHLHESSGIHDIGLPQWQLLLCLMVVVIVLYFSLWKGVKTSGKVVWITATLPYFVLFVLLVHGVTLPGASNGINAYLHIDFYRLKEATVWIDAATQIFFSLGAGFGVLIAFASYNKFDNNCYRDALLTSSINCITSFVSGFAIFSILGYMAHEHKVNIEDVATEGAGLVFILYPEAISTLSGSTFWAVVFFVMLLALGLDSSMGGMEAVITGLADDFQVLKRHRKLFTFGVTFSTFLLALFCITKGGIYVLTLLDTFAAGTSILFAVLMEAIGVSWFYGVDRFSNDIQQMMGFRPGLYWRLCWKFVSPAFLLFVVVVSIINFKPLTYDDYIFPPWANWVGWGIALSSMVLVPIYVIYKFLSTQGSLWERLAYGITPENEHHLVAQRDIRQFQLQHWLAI
Sequence of Beta-1 adrenergic receptor (P08588 whole entry): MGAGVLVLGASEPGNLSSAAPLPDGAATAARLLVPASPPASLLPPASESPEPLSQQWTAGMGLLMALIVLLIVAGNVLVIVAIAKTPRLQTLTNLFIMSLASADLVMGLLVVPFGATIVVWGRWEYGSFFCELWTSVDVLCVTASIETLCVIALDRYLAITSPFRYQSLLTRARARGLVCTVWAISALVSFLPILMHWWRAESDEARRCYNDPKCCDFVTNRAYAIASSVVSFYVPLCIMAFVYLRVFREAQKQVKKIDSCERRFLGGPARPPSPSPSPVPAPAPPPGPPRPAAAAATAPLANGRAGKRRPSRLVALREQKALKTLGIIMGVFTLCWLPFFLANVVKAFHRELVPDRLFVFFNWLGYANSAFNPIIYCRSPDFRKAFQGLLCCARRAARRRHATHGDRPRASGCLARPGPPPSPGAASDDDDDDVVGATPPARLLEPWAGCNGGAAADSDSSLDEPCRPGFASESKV
Sequence of Gamma-aminobutyric acid receptor subunit alpha-1 (P62813 whole entry): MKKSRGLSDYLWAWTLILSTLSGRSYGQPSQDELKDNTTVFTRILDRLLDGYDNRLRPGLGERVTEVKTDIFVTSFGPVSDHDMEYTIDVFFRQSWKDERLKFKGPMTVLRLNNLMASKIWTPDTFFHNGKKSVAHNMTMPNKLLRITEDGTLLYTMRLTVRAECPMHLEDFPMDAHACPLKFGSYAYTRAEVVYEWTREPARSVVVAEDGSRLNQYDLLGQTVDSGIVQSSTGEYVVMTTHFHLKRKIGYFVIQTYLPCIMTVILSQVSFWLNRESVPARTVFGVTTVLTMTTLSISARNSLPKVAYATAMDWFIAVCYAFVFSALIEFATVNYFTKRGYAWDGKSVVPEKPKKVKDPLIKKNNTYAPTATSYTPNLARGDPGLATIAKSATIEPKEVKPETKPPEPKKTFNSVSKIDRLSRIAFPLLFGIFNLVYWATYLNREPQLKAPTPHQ

| SMILES | AC50 [1] | AC50 [2] | AC50 (Thromboxane A2 receptor) | AC50 (Progesterone receptor) | AC50 (D(1A) dopamine receptor) | AC50 [3] | AC50 [4] | AC50 [5] | AC50 [6] | AC50 [7] |
| --- | --- | --- | --- | --- | --- | --- | --- | --- | --- | --- |
| OCC(O)COc1ccc(Cl)cc1 (configuration not stated) | > 10 µM | > 10 µM | > 10 µM | > 10 µM | > 10 µM | > 10 µM | > 10 µM | > 10 µM | > 30 µM |  |
| COc1ccc(-n2nc(C(N)=O)c3c2C(=O)N(c2ccc(N4CCCCC4=O)cc2)CC3)cc1 [APIXABAN] | > 30 µM | > 30 µM |  | > 30 µM | > 30 µM | > 30 µM | > 30 µM | > 30 µM | > 30 µM | > 30 µM |
| CN(Cc1ccc(C(C)(C)C)cc1)Cc1cccc2ccccc12 [BUTENAFINE] | > 10 µM | > 10 µM | > 10 µM | > 30 µM | > 10 µM | > 10 µM | > 10 µM | > 10 µM | > 30 µM |  |
| Nc1nc(Cl)nc2c1ncn2[C@@H]1O[C@H](CO)[C@@H](O)[C@@H]1F [CLOFARABINE] | > 30 µM | > 10 µM | > 30 µM | > 30 µM | > 30 µM | > 10 µM | > 10 µM | > 30 µM | > 30 µM |  |

Now from value to compound:

| AC50 [1] | AC50 [2] | AC50 (Thromboxane A2 receptor) | AC50 (Progesterone receptor) | AC50 (D(1A) dopamine receptor) | AC50 [3] | AC50 [4] | AC50 [5] | AC50 [6] | AC50 [7] | SMILES |
| --- | --- | --- | --- | --- | --- | --- | --- | --- | --- | --- |
| > 30 µM | > 30 µM |  | > 30 µM | > 30 µM | > 30 µM | > 30 µM | > 30 µM | > 30 µM | > 30 µM | CC(=O)OCC1=C(C(=O)O)N2C(=O)[C@@H](NC(=O)Cc3cccs3)[C@H]2SC1 [CEPHALOTHIN] |
| > 10 µM | > 10 µM | > 10 µM | > 30 µM | > 10 µM | > 10 µM | > 10 µM | > 10 µM | > 30 µM |  | CC(=O)OCC1=C(C(=O)O)N2C(=O)[C@@H](NC(=O)CSc3ccncc3)[C@H]2SC1 [CEPHAPIRIN] |
| > 30 µM | > 30 µM |  | > 30 µM | > 30 µM | > 30 µM | > 30 µM | > 30 µM | > 30 µM | > 30 µM | CC1=C(C(=O)O)N2C(=O)[C@@H](NC(=O)[C@H](N)C3=CCC=CC3)[C@H]2SC1 [CEPHRADINE] |
| > 30 µM | > 10 µM | > 10 µM | > 30 µM | > 10 µM | > 10 µM | > 10 µM | > 10 µM | > 30 µM |  | CC1CC(OC(=O)C(O)c2ccccc2)CC(C)(C)C1 (configuration not stated) [CYCLANDELATE] |
